Reference: the supplement of paper PMC10733146

Tests used:
Assay in all cases: viability relative to DMSO control (fraction); higher = less drug effect (more viable cells)
[1] = system: primary AML patient cells (S006); conditions: 0.04 µM; 48 h
Outline: (§1)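 Viability is given as CellTiter-Glo luminescence relative to the median of 16 inner DMSO wells. Fresh or cryopreserved primary mononuclear tumour cells from blood, bone marrow (both Ficoll-isolated) or processed lymph node were plated at 4 × 10^4 cells per well in 384-well plates against five pre-plated compound concentrations, one well each. Incubation lasted 48 h at 37 °C and 5% CO2 in RPMI-1640 with penicillin/streptomycin, L-glutamine and human serum.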

[2] = system: primary AML patient cells (S012); conditions: 48 h
Outline: as §1

[3] = system: primary AML patient cells (S044); conditions: 1 µM; 48 h
Outline: as §1

[4] = system: primary AML patient cells (S037); conditions: 48 h
Outline: as §1

[5] = system: primary FL patient cells (S022); conditions: 48 h
Outline: as §1

[6] = system: primary MCL patient cells (S041); conditions: 48 h
Outline: as §1

[7] = system: primary AML patient cells (S079); conditions: 48 h
Outline: as §1

[8] = system: primary DLBCL patient cells (S076); conditions: 0.2 µM; 48 h
Outline: as §1

[9] = system: primary MCL patient cells (S063); conditions: 48 h
Outline: as §1

[10] = system: primary AML patient cells (S089); conditions: 48 h
Outline: as §1

[11] = system: primary AML patient cells (S056); conditions: 0.008 µM; 48 h
Outline: as §1

[12] = system: primary DLBCL patient cells (S049); conditions: 48 h
Outline: as §1

[13] = system: primary ALL patient cells (S048); conditions: 0.008 µM; 48 h
Outline: as §1

[14] = system: primary AML patient cells (S011); conditions: 0.2 µM; 48 h
Outline: as §1

[15] = system: primary AML patient cells (S007); conditions: 1 µM; 48 h
Outline: as §1

[16] = system: primary AML patient cells (S002); conditions: 0.04 µM; 48 h
Outline: as §1

[17] = system: primary MCL patient cells (S068); conditions: 48 h
Outline: as §1

[18] = system: primary AML patient cells (S009); conditions: 0.0016 µM; 48 h
Outline: as §1

[19] = system: primary DLBCL patient cells (S082); conditions: 48 h
Outline: as §1

[20] = system: primary AML patient cells (S017); conditions: 0.04 µM; 48 h
Outline: as §1

[21] = system: primary AML patient cells (S072); conditions: 48 h
Outline: as §1

[22] = system: primary AML patient cells (S019); conditions: 1 µM; 48 h
Outline: as §1

[23] = system: primary AML patient cells (S081); conditions: 1 µM; 48 h
Outline: as §1

[24] = system: primary AML patient cells (S055); conditions: 0.008 µM; 48 h
Outline: as §1

[25] = system: primary T-NHL patient cells (S058); conditions: 0.0016 µM; 48 h
Outline: as §1

[26] = system: primary B-PLL patient cells (S016); conditions: 48 h
Outline: as §1

[27] = system: primary AML patient cells (S071); conditions: 1 µM; 48 h
Outline: as §1

[28] = system: primary MCL patient cells (S053); conditions: 48 h
Outline: as §1

[29] = system: primary AML patient cells (S021); conditions: 48 h
Outline: as §1

[30] = system: primary BL patient cells (S005); conditions: 48 h
Outline: as §1

C=CC(=O)N1CCC[C@@H](n2nc(-c3ccc(Oc4ccccc4)cc3)c3c(N)ncnc32)C1 [Ibrutinib]
viability [1]: 0.988 | viability ([2]; 0.0016 µM): 1.1 | viability ([2]; 0.008 µM): 1.09 | viability [3]: 0.777 | viability ([4]; 0.0016 µM): 1.4 | viability ([4]; 0.04 µM): 1.5 | viability ([4]; 1 µM): 1.75 | viability ([5]; 0.2 µM): 0.978 | viability ([5]; 1 µM): 0.978 | viability ([6]; 0.0016 µM): 0.874 | viability ([6]; 0.008 µM): 0.802 | viability ([7]; 0.04 µM): 0.879 | viability ([7]; 0.2 µM): 0.862 | viability ([7]; 1 µM): 1.25 | viability [8]: 0.89 | viability ([9]; 0.0016 µM): 0.475 | viability ([9]; 0.008 µM): 0.292 | viability ([9]; 0.04 µM): 0.253 | viability ([9]; 0.2 µM): 0.255 | viability ([9]; 1 µM): 0.262 | viability ([10]; 0.008 µM): 0.988 | viability ([10]; 0.04 µM): 1 | viability ([10]; 0.2 µM): 0.615 | viability ([10]; 1 µM): 0.6 | viability [11]: 1.1 | viability ([12]; 0.0016 µM): 0.848 | viability ([12]; 0.04 µM): 0.729 | viability ([12]; 0.2 µM): 0.687 | viability ([12]; 1 µM): 0.686 | viability [13]: 1.12 | viability [14]: 0.972 | viability [15]: 0.338 | viability [16]: 1.18 | viability ([17]; 0.0016 µM): 0.77 | viability ([17]; 0.008 µM): 0.697 | viability ([17]; 0.2 µM): 0.687 | viability ([17]; 1 µM): 0.783 | viability [18]: 0.965 | viability ([19]; 0.0016 µM): 0.711 | viability ([19]; 0.008 µM): 0.583 | viability ([19]; 0.04 µM): 0.465 | viability ([19]; 0.2 µM): 0.458 | viability ([19]; 1 µM): 0.477 | viability [20]: 1.1 | viability ([21]; 0.0016 µM): 1.2 | viability ([21]; 0.04 µM): 0.913 | viability [22]: 1 | viability [23]: 1.14 | viability [24]: 0.949 | viability [25]: 1.12 | viability ([26]; 0.0016 µM): 0.576 | viability ([26]; 0.008 µM): 0.507 | viability ([26]; 0.04 µM): 0.517 | viability ([26]; 0.2 µM): 0.508 | viability ([26]; 1 µM): 0.547 | viability [27]: 0.673 | viability ([28]; 0.0016 µM): 0.591 | viability ([28]; 0.008 µM): 0.57 | viability ([28]; 0.04 µM): 0.595 | viability ([28]; 0.2 µM): 0.588 | viability ([28]; 1 µM): 0.601 | viability ([29]; 0.04 µM): 1 | viability ([29]; 1 µM): 0.913 | viability ([30]; 0.0016 µM): 1.1 | viability ([30]; 0.008 µM): 0.982 | viability ([30]; 0.2 µM): 0.978
